In this test the target is B-Raf (V600E)-kinase (Homo sapiens (Human), UniProt P15056, V600E). Briefly: Kinase test B-RAF (V600E). Type of test: biochemical. The note with it: B-RAF (V600E) kinase test, 250 μM ATP. In short, it runs like this: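 Read-out is DELFIA europium TRF of phospho-MEK (Ser217/221) on biotinylated MEK1 bound to streptavidin plates, IC50 from dose-response. Reaction ran 60 min at RT with 250 μM ATP, after a 24 h RT preincubation of compound with B-Raf (V600E) kinase, 5% DMSO final.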

Results on 49 molecules are retold here after patent publication US8653087B2, “Pyrido [5, 4-D] pyrimidines as cell proliferation inhibitors” (Boehringer Ingelheim International GmbH, priority 2008, dated 2014).

pIC50: −log10 of the molar value. A value given as a limit tells only on which side of the number the result lay.

Chain of B-Raf (V600E)-kinase (P15056 whole entry V600E): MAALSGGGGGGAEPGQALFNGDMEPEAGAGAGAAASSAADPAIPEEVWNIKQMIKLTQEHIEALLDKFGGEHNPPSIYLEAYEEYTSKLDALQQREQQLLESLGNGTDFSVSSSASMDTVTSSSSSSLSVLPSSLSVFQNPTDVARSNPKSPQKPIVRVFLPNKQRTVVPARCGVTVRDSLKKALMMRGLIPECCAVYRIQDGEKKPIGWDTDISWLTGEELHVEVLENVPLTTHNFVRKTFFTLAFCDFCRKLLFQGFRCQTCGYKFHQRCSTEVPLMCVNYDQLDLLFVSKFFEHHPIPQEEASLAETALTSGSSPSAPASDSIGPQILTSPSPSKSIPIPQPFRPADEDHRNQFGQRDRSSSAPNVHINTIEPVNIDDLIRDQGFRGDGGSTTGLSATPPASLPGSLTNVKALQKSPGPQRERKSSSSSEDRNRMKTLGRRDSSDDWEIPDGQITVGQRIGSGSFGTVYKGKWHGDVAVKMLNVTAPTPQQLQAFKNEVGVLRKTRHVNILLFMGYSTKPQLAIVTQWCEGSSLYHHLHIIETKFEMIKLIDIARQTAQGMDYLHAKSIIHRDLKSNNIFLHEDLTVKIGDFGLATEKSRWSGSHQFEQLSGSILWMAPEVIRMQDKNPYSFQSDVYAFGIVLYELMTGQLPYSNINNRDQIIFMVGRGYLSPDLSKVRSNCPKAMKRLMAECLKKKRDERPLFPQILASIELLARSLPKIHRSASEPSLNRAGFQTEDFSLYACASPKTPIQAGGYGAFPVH

As usually defined, the pIC50 is the IC50 on a negative log10 scale, so that one unit is a factor of ten. A higher pIC50 goes with a small IC50. Turning to `COc1ccc(NC(=O)c2ccc(F)c(Nc3ncnc4cnc(N5CCCCC5)nc34)c2)cc1C(F)(F)F` [III-35], the negative logarithm of the IC50 (pIC50) is 8.30.
Consider `COc1ccc(NC(=O)c2ccc(F)c(Nc3ncnc4cnc(NCCCN5CCOCC5)nc34)c2)cc1C(F)(F)F` [III-36], for which the negative logarithm of the IC50 (pIC50) was 8.52.
Under `COc1ccc(NC(=O)c2ccc(F)c(Nc3ncnc4cnc(N5CCOCC5)nc34)c2)cc1C(F)(F)F` [III-37] stands 8.40.
Molecule `COc1ccc(NC(=O)c2ccc(F)c(Nc3ncnc4cnc(N5CCCC5)nc34)c2)cc1C(F)(F)F` [III-38] had a pIC50 of 8.30.
Under `COc1ccc(NC(=O)c2ccc(F)c(Nc3ncnc4cnc(NCCN(C)C)nc34)c2)cc1C(F)(F)F` [III-39] stands 8.70; under `COc1ccc(NC(=O)c2ccc(F)c(Nc3ncnc4cnc(NCCN5CCOCC5)nc34)c2)cc1C(F)(F)F` [III-40], 8.70.
The figure for `COc1ccc(NC(=O)c2ccc(F)c(Nc3ncnc4cnc(N(C)C)nc34)c2)cc1C(F)(F)F` [III-41] is 9.00; for `COCCN(C)c1ncc2ncnc(Nc3cc(C(=O)Nc4ccc(OC)c(C(F)(F)F)c4)ccc3C(F)(F)F)c2n1` [III-42] it is 7.19; for `COc1ccc(NC(=O)c2ccc(C(F)(F)F)c(Nc3ncnc4cnc(N(C)CCN(C)C)nc34)c2)cc1C(F)(F)F` [III-43] it is 6.01.
The figure for `COc1ccc(NC(=O)c2ccc(C(F)(F)F)c(Nc3ncnc4cnc(N5CCCCCC5)nc34)c2)cc1C(F)(F)F` [III-44] is less than 5.70; for `COc1ccc(NC(=O)c2ccc(C(F)(F)F)c(Nc3ncnc4cnc(N5CCCN(C)CC5)nc34)c2)cc1C(F)(F)F` [III-45] it is 6.55; for `COc1ccc(NC(=O)c2ccc(C(F)(F)F)c(Nc3ncnc4cnc(N(C)CCN5CCCC5)nc34)c2)cc1C(F)(F)F` [III-46] it is 6.35.
As for `COc1ccc(NC(=O)c2ccc(C(F)(F)F)c(Nc3ncnc4cnc(N5CCN(C)CC5)nc34)c2)cc1C(F)(F)F` [III-47], the pIC50 is 7.02.
Under `COc1ccc(NC(=O)c2ccc(C(F)(F)F)c(Nc3ncnc4cnc(N5CCCCC5)nc34)c2)cc1C(F)(F)F` [III-48] stands less than 6.00; under `COc1ccc(NC(=O)c2ccc(C(F)(F)F)c(Nc3ncnc4cnc(NCCCN5CCOCC5)nc34)c2)cc1C(F)(F)F` [III-49], 6.23; under `COc1ccc(NC(=O)c2ccc(C(F)(F)F)c(Nc3ncnc4cnc(N5CCOCC5)nc34)c2)cc1C(F)(F)F` [III-50], 8.30.
The figure for `COc1ccc(NC(=O)c2ccc(C(F)(F)F)c(Nc3ncnc4cnc(N5CCCC5)nc34)c2)cc1C(F)(F)F` [III-51] is 6.42; for `COc1ccc(NC(=O)c2ccc(C(F)(F)F)c(Nc3ncnc4cnc(NCCN(C)C)nc34)c2)cc1C(F)(F)F` [III-52] it is 5.65.
The figure for `COc1ccc(NC(=O)c2ccc(C(F)(F)F)c(Nc3ncnc4cnc(NCCN5CCOCC5)nc34)c2)cc1C(F)(F)F` [III-53] is 6.50.
Molecule `COc1ccc(NC(=O)c2ccc(C(F)(F)F)c(Nc3ncnc4cnc(N(C)C)nc34)c2)cc1C(F)(F)F` [III-54] had a pIC50 of 6.27.
The figure for `COCCN(C)c1ncc2ncnc(Nc3cc(C(=O)Nc4cc(C(C)(C)C)on4)ccc3C(F)(F)F)c2n1` [III-55] is less than 6.82; for `CN(C)CCN(C)c1ncc2ncnc(Nc3cc(C(=O)Nc4cc(C(C)(C)C)on4)ccc3C(F)(F)F)c2n1` [III-56] it is 5.70; for `CC(C)(C)c1cc(NC(=O)c2ccc(C(F)(F)F)c(Nc3ncnc4cnc(N5CCCCCC5)nc34)c2)no1` [III-57] it is 5.74.
On to `CN1CCCN(c2ncc3ncnc(Nc4cc(C(=O)Nc5cc(C(C)(C)C)on5)ccc4C(F)(F)F)c3n2)CC1` [III-58], for which the pIC50 is 7.06.
Under `CN(CCN1CCCC1)c1ncc2ncnc(Nc3cc(C(=O)Nc4cc(C(C)(C)C)on4)ccc3C(F)(F)F)c2n1` [III-59] stands 6.08; under `CN1CCN(c2ncc3ncnc(Nc4cc(C(=O)Nc5cc(C(C)(C)C)on5)ccc4C(F)(F)F)c3n2)CC1` [III-60], 6.64; under `CC(C)(C)c1cc(NC(=O)c2ccc(C(F)(F)F)c(Nc3ncnc4cnc(N5CCCCC5)nc34)c2)no1` [III-61], 5.65.
`CC(C)(C)c1cc(NC(=O)c2ccc(C(F)(F)F)c(Nc3ncnc4cnc(NCCCN5CCOCC5)nc34)c2)no1` [III-62] gave a pIC50 of 6.26.
Under `CC(C)(C)c1cc(NC(=O)c2ccc(C(F)(F)F)c(Nc3ncnc4cnc(N5CCOCC5)nc34)c2)no1` [III-63] stands 7.89.
Under `CC(C)(C)c1cc(NC(=O)c2ccc(C(F)(F)F)c(Nc3ncnc4cnc(N5CCCC5)nc34)c2)no1` [III-64] stands less than 6.00; under `CN(C)CCNc1ncc2ncnc(Nc3cc(C(=O)Nc4cc(C(C)(C)C)on4)ccc3C(F)(F)F)c2n1` [III-65], 5.38.
Under `CC(C)(C)c1cc(NC(=O)c2ccc(C(F)(F)F)c(Nc3ncnc4cnc(NCCN5CCOCC5)nc34)c2)no1` [III-66] stands 5.94; under `COCCN(C)c1ncc2ncnc(Nc3cc(C(=O)Nc4cc(C(C)(C)C)on4)ccc3Cl)c2n1` [III-67], 8.30.
Take `CC(C)(C)c1cc(NC(=O)c2ccc(Cl)c(Nc3ncnc4cnc(N5CCCCCC5)nc34)c2)no1` [III-68]: the pIC50 is 8.10.
The figure for `CN(C)c1ncc2ncnc(Nc3cc(C(=O)Nc4cc(C(C)(C)C)on4)ccc3Cl)c2n1` [III-69] is 8.22; for `CN1CCCN(c2ncc3ncnc(Nc4cc(C(=O)Nc5cc(C(C)(C)C)on5)ccc4Cl)c3n2)CC1` [III-70] it is 8.40; for `CN(CCN1CCCC1)c1ncc2ncnc(Nc3cc(C(=O)Nc4cc(C(C)(C)C)on4)ccc3Cl)c2n1` [III-71] it is 8.52.
The figure for `CN1CCN(c2ncc3ncnc(Nc4cc(C(=O)Nc5cc(C(C)(C)C)on5)ccc4Cl)c3n2)CC1` [III-72] is 8.40.
Under `CC(C)(C)c1cc(NC(=O)c2ccc(Cl)c(Nc3ncnc4cnc(N5CCCCC5)nc34)c2)no1` [III-73] stands 8.40; under `CC(C)(C)c1cc(NC(=O)c2ccc(Cl)c(Nc3ncnc4cnc(NCCCN5CCOCC5)nc34)c2)no1` [III-74], 9.00.
The molecule `CC(C)(C)c1cc(NC(=O)c2ccc(Cl)c(Nc3ncnc4cnc(N5CCOCC5)nc34)c2)no1` [III-75] had a pIC50 of 9.00.
`CC(C)(C)c1cc(NC(=O)c2ccc(Cl)c(Nc3ncnc4cnc(N5CCCC5)nc34)c2)no1` [III-76] showed a pIC50 of 7.96.
Under `CN(C)CCNc1ncc2ncnc(Nc3cc(C(=O)Nc4cc(C(C)(C)C)on4)ccc3Cl)c2n1` [III-77] stands 8.70; under `CC(C)(C)c1cc(NC(=O)c2ccc(Cl)c(Nc3ncnc4cnc(NCCN5CCOCC5)nc34)c2)no1` [III-78], 8.70; under `CN(C)CCN(C)c1ncc2ncnc(Nc3cc(C(=O)Nc4cc(C(C)(C)C)on4)ccc3Cl)c2n1` [III-79], 9.00.
Under `COCCN(C)c1ncc2ncnc(Nc3cc(C(=O)Nc4cc(C(C)(C)C)on4)ccc3OC)c2n1` [III-80] stands 8.22; under `COc1ccc(C(=O)Nc2cc(C(C)(C)C)on2)cc1Nc1ncnc2cnc(N3CCOCC3)nc12` [III-81], 8.70.
The figure for `COc1ccc(C(=O)Nc2cc(C(C)(C)C)on2)cc1Nc1ncnc2cnc(N3CCCC3)nc12` [III-82] is 7.70; for `COc1ccc(C(=O)Nc2cc(C(C)(C)C)on2)cc1Nc1ncnc2cnc(N(C)C)nc12` [III-83] it is 8.10.
